Here are results for 2 compounds from publication PMC10788915, “Fragment Merging, Growing, and Linking Identify New Trypanothione Reductase Inhibitors for Leishmaniasis” (Journal of Medicinal Chemistry, 2024).

Where two headings read alike, the source gives them in different places.

The test system of this test is L. infantum intramacrophage amastigotes. Put plainly: Ex vivo inhibition of intramacrophage amastigote growth. The format is cell-based, Leishmania infantum. The following applies: for EC50: 72 h, murine macrophages infected with L. infantum amastigotes, read-out: intramacrophage amastigote EC50 ± SE (95% CI). How it is done: Balb/c murine macrophages were used to perform ex vivo assay since the parasites infect them more effectively. Macrophages (5 × 10^5/well) were placed on glass coverslips within a 24-well culture plate and incubated with complete RPMI in a 5% CO2 incubator at 37 °C for 4 h to achieve cell adhesion. After this time, L. infantum amastigotes from spleens of previously infected hamsters were added onto the macrophages adhering to the coverslips at the ratio of 10:1 (parasites/macrophages). After 24 h of infection, the noninternalized amastigotes were removed by washes with RPMI. The infected macrophages were incubated with complete RPMI medium (control) or medium containing different concentrations of compounds in a 5% CO2 incubator at 37 °C for 72 h. Then, the coverslips were fixed with methanol, stained with Giemsa 10%, and analyzed by optical microscopy. The percentage of the infected macrophages and the number of amastigotes per infected macrophage were determined by random counting of 100 cells in each coverslip. Infection was judged to be adequate if more than 70% of the macrophages in the untreated control were infected. Activity for each compound was expressed as percentage of parasite burden reduction = infectivity index of treated cells/infectivity index of untreated cells. The infectivity index was calculated as follows: number of infected macrophages × mean number of amastigotes per macrophage / total number of macrophages. Nonlinear regression analysis (Graph-Pad Software Inc., San Diego, USA) was used for curve fitting and calculation of 50% inhibitory concentrations (IC50). The experiments were performed in triplicate, and two independent experiments were conducted.

Take `C[N+]1(CCCc2ccccc2)CCN(C(=O)N(Cc2ccc(C(=O)NCCc3ccc(F)cc3)o2)c2ccc(F)cc2)CC1.[I-]` [Compound 9, 4-(((5-((4-Fluorophenethyl)carbamoyl)furan-2-yl)methyl)(4-fluorophenyl)carbamoyl)-1-methyl-1-(3-phenylpropyl)piperazin-1-ium Iodide]: the concentration for a half-maximal effect (EC50) worked out at 15.3 ± 2.3 µM. For the same compound, the EC50 (Leishmania infantum, Macrophage, in Mus musculus) is 15.3 µM. Turning to `O=C(NCCc1ccc(F)cc1)c1ccc(CNC(=O)N2CC[N+](CCCc3ccccc3)(Cc3ccc(Cl)c(Cl)c3)CC2)o1.[I-]` [Compound 14, 1-(3,4-Dichlorobenzyl)-4-(((5-((4-fluorophenethyl)carbamoyl)furan-2-yl)methyl)carbamoyl)-1-(3-phenylpropyl)piperazin-1-ium Iodide], the intramacrophage amastigote reduction (at 12.5 μM) is 40% of reduction at 12.5 μM.
